Results reported in patent publication US20230086702A1, “SUBSTITUTED 2-AMINO-PYRAZOLYL-[1,2,4]TRIAZOLO[1,5A]PYRIDINE DERIVATIVES AND USE THEREOF” (The Johns Hopkins University, priority 2019, published 2023).

What was measured:
[1] = target: T1, DLK (Homo sapiens, UniProt Q12852); experiment: DLK biochemical assay (TR-FRET, MKK7 phosphorylation); settings: DLK catalytic domain, MKK7 substrate, 60 μM ATP
T1 construct: 10 nM DLK, catalytic domain, Carna Biosiences; purchased Carna Biosciences ('Carna Biosiences' [sic])
T1 sequence (Q12852 125-366 limits assumed): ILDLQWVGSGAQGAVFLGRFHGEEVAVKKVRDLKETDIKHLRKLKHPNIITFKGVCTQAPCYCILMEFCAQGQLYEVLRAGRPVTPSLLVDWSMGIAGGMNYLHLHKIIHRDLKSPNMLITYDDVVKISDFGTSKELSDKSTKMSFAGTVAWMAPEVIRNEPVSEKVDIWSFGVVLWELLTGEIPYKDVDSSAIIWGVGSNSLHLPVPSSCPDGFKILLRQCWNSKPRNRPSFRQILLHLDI
Outline: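 Human DLK activity measured as phosphorylation of His-tagged MKK7 at T275/S277, detected by TR-FRET between Eu-anti-phospho-MKK7 donor (excitation 340 nm) and XL665-anti-His acceptor (665 nm). Signal taken as the XL665/Eu ratio. Detection buffer: 25 mM Tris/HCl pH 7.5, 100 mM EDTA, 100 mM NaCl, 200 mM KF, 0.01% Tween 20.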

[2] = target: T2, LZK (Homo sapiens, UniProt O43283); experiment: LZK biochemical assay (TR-FRET, MKK7 phosphorylation); settings: LZK catalytic domain, MKK7 substrate, 15 μM ATP
T2 construct: 10 nM LZK, catalytic domain, Carna Biosiences in assay buffer; purchased Carna Biosciences ('Carna Biosiences' [sic])
T2 sequence (O43283 168-409 limits assumed): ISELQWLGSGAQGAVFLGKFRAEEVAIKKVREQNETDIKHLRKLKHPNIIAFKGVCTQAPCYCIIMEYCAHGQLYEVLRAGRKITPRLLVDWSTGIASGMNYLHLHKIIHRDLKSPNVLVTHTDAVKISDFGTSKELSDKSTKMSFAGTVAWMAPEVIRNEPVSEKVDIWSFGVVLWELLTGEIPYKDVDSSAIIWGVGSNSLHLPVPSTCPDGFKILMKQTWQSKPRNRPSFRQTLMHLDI

Question: How did the IC50 [1] turn out when `CC[C@H](C)NC(=O)c1cc(-c2cnn(C(CC(F)(F)F)c3ccccc3)c2)cn2nc(N)nc12` (mixture of isomers) [Example I-37, 2-Amino-N-[(2S)-butan-2-yl]-6-{1-[3,3,3-trifluoro-1-phenylpropyl]-1H-pyrazol-4-yl}[1,2,4]triazolo[1,5-a]pyridine-8-carboxamide] was run?
Answer: 3.6 nM

Question: What about the IC50 [2] of the same compound?
Answer: 240 nM

Question: What does the source list for `CC[C@H](C)NC(=O)c1cc(-c2cnn(C3CN(C)C3)c2)cn2nc(N)nc12` [Example I-4]?
Answer: IC50 [1]: 84 nM; IC50 [2]: 26 nM

Question: What does the source list for `CC[C@H](C)NC(=O)c1cc(-c2cnn(C(COC)c3ccccc3)c2)cn2nc(N)nc12` (single isomer, unassigned) [Example I-42]?
Answer: IC50 [1]: 9.8 nM; IC50 [2]: 37 nM

Question: For `CC[C@H](C)NC(=O)c1cc(-c2cnn(C3CCN(C(C)=O)CC3)c2)cn2nc(N)nc12` (single isomer, unassigned) [Example I-11], which IC50 [1] is on record?
Answer: 82 nM

Question: What about the IC50 [2] of the same compound?
Answer: 14 nM

Question: `Nc1nc2cc(-c3cnn(C(c4ccc(C(F)(F)F)nc4)C4CCOCC4)c3)cc(C(=O)N[C@H]3CCOC3)n2n1` (single isomer, unassigned) [Example I-185] was tested. Which IC50 [1] did it give?
Answer: 0.8 nM

Question: What about the IC50 [2] of the same compound?
Answer: 2.3 nM

Question: Which results are given for `CC[C@H](C)NC(=O)c1cc(-c2cnn(C(c3ccnc(C(F)(F)F)c3)C(C)C)c2)cn2nc(N)nc12` (mixture of isomers) [Example I-91, 2-Amino-N-[(2S)-butan-2-yl]-6-(1-{2-methyl-1-[2-(trifluoromethyl)pyridin-4-yl]propyl}-1H-pyrazol-4-yl)[1,2,4]triazolo[1,5-a]pyridine-8-carboxamide]?
Answer: IC50 [1]: 2.9 nM; IC50 [2]: 15 nM

Question: For `CCC(c1ccnc(C(F)(F)F)c1)n1cc(-c2cc(C(=O)N[C@@H](C)CC)n3nc(N)nc3c2)cn1` (mixture of isomers) [Example I-122, 2-Amino-N-[(2S)-butan-2-yl]-7-(1-{1-[2-(trifluoromethyl)pyridin-4-yl]propyl}-1H-pyrazol-4-yl)[1,2,4]triazolo[1,5-a]pyridine-5-carboxamide], which IC50 [1] is on record?
Answer: 3.5 nM

Question: And the IC50 [2]?
Answer: 7.4 nM

Question: How did the IC50 [1] turn out when `CC(C)[C@@H](c1ccc(F)cc1)n1cc(-c2cc(C(=O)N[C@@H](C)CO)c3nc(N)nn3c2)cn1` (single isomer, unassigned) [Example I-162] was run?
Answer: 1.3 nM

Question: And the IC50 [2]?
Answer: 83 nM

Question: How did the IC50 [1] turn out when `CC(C)C(c1ccc(F)cc1)n1cc(-c2cc(C(=O)N[C@@H](C)CO)c3nc(N)nn3c2)cn1` (single isomer, unassigned) [Example I-161] was run?
Answer: 51 nM

Question: What about the IC50 [2] of the same compound?
Answer: 540 nM

Question: With `CC[C@H](C)NC(=O)c1cc(-c2cnn(C(c3ccccc3)C(C)C)c2)cc2nc(N)nn12` (single isomer, unassigned) [Example I-25] as the compound, how does the IC50 [1] read?
Answer: 23 nM

Question: What about the IC50 [2] of the same compound?
Answer: 140 nM

Question: `CC[C@H](C)NC(=O)c1cc(-c2cnn(C(c3ccc(F)cc3)C(C)C)c2)cn2nc(N)nc12` (single isomer, unassigned) [Example I-44] was tested. Which IC50 [1] did it give?
Answer: 33 nM

Question: And the IC50 [2]?
Answer: 160 nM

Question: With `CC[C@H](C)NC(=O)c1cc(-c2cnn(C(c3ccc(C(F)(F)F)nc3)C3CC3)c2)cc2nc(N)nn12` (single isomer, unassigned) [Example I-108] as the compound, how does the IC50 [1] read?
Answer: 28 nM

Question: And the IC50 [2]?
Answer: 17 nM

Question: Which results are given for `CCC(c1ccc(C(F)(F)F)nc1)n1cc(-c2cc(C(=O)NC(C)(C)CO)c3nc(N)nn3c2)cn1` (racemic) [Example I-163, 2-Amino-N-(1-hydroxy-2-methylpropan-2-yl)-6-(1-{1-[6-(trifluoromethyl)pyridin-3-yl]propyl}-1H-pyrazol-4-yl)[1,2,4]triazolo[1,5-a]pyridine-8-carboxamide]?
Answer: IC50 [1]: 7.6 nM; IC50 [2]: 30 nM

Question: What does the source list for `CC[C@H](C)NC(=O)c1cc(-c2cnn([C@@H](CC)c3ccc(F)cc3)c2)cc2nc(N)nn12` (single isomer, unassigned) [Example I-54]?
Answer: IC50 [1]: 1.9 nM; IC50 [2]: 8.5 nM

Question: What does the source list for `CC[C@H](C)NC(=O)c1cc(-c2cnn(C(COC)c3ccccc3)c2)cn2nc(N)nc12` (mixture of isomers) [Example I-40, 2-Amino-N-[(2S)-butan-2-yl]-6-[1-(2-methoxy-1-phenylethyl)-1H-pyrazol-4-yl][1,2,4]triazolo[1,5-a]pyridine-8-carboxamide]?
Answer: IC50 [1]: 4.5 nM; IC50 [2]: 67 nM

Question: `CCC(c1ccc(OCC(F)(F)F)nc1)n1cc(-c2cc(C(=O)N[C@@H](C)CC)c3nc(N)nn3c2)cn1` (single isomer, unassigned) [Example I-86] was tested. Which IC50 [1] did it give?
Answer: 100 nM

Question: And the IC50 [2]?
Answer: 160 nM

Question: `CC[C@H](C)NC(=O)c1cc(-c2cnn(C(c3c(F)cncc3F)C(C)C)c2)cc2nc(N)nn12` (single isomer, unassigned) [Example I-124] was tested. Which IC50 [1] did it give?
Answer: 60 nM

Question: What about the IC50 [2] of the same compound?
Answer: 270 nM

Question: How did the IC50 [1] turn out when `CC[C@H](C)NC(=O)c1cc(-c2cnn(C(c3ccc(OCC(F)(F)F)nc3)C(C)C)c2)cc2nc(N)nn12` (single isomer, unassigned) [Example I-117] was run?
Answer: 73 nM

Question: And the IC50 [2]?
Answer: 250 nM

Question: For `CCC(c1ccc(F)cn1)n1cc(-c2cc(C(=O)N[C@@H](C)CC)c3nc(N)nn3c2)cn1` (single isomer, unassigned) [Example I-57], which IC50 [1] is on record?
Answer: 59 nM

Question: And the IC50 [2]?
Answer: 61 nM

Question: Which IC50 [1] does the source give for `CCC(c1cncc(Cl)c1)n1cc(-c2cc(C(=O)N[C@@H](C)CC)c3nc(N)nn3c2)cn1` (single isomer, unassigned) [Example I-59] here?
Answer: 20 nM

Question: And the IC50 [2]?
Answer: 58 nM

Question: Which IC50 [1] does the source give for `CC[C@H](C)NC(=O)c1cc(-c2cnn(C(c3ccc(OCC(F)(F)F)nc3)C(C)C)c2)cn2nc(N)nc12` (single isomer, unassigned) [Example I-90] here?
Answer: 3 nM

Question: And the IC50 [2]?
Answer: 34 nM

Question: For `Nc1nc2c(C(=O)N[C@H]3CCOC3)cc(-c3cnn(Cc4cccc5cn[nH]c45)c3)cn2n1` (single isomer, unassigned) [Example I-175], which IC50 [1] is on record?
Answer: 3.8 nM

Question: What about the IC50 [2] of the same compound?
Answer: 150 nM

Question: What does the source list for `CC[C@H](C)NC(=O)c1cc(-c2cnn(C(c3ccccc3)C(C)(C)C)c2)cn2nc(N)nc12` (single isomer, unassigned) [Example I-36]?
Answer: IC50 [1]: 25 nM; IC50 [2]: 180 nM

Question: `CC[C@H](C)NC(=O)c1cc(-c2cnn(C(c3cncc(Cl)c3)C(C)C)c2)cn2nc(N)nc12` (single isomer, unassigned) [Example I-62] was tested. Which IC50 [1] did it give?
Answer: 8.8 nM

Question: What about the IC50 [2] of the same compound?
Answer: 74 nM

Question: For `Nc1nc2cc(-c3cnn(C(c4ccc(C(F)(F)F)nc4)C4CCOCC4)c3)cc(C(=O)N[C@H]3CCOC3)n2n1` (mixture of isomers) [Example I-183, 2-Amino-N-[(3S)-tetrahydrofuran-3-yl]-7-(1-{tetrahydro-2H-pyran-4-yl[6-(trifluoromethyl)pyridin-3-yl]methyl}-1H-pyrazol-4-yl)[1,2,4]triazolo[1,5-a]pyridine-5-carboxamide], which IC50 [1] is on record?
Answer: 1.7 nM

Question: And the IC50 [2]?
Answer: 6 nM

Question: Which results are given for `CC[C@@H](c1ccc(F)cc1)n1cc(-c2cc(C(=O)NC(C)CF)n3nc(N)nc3c2)cn1` (mixture of isomers) [Example I-148, 2-Amino-7-{1-[(1S)-1-(4-fluorophenyl)propyl]-1H-pyrazol-4-yl}-N-(1-fluoropropan-2-yl)[1,2,4]triazolo[1,5-a]pyridine-5-carboxamide]?
Answer: IC50 [1]: 1.6 nM; IC50 [2]: 32 nM

Question: How did the IC50 [1] turn out when `CC[C@H](C)NC(=O)c1cc(-c2cnn(C(c3ccc(C(F)(F)F)nc3)C3CCOCC3)c2)cc2nc(N)nn12` (single isomer, unassigned) [Example I-111] was run?
Answer: 0.5 nM

Question: And the IC50 [2]?
Answer: 1.4 nM

Question: `CC[C@H](C)NC(=O)c1cc(-c2cnn(C(c3ccc(C(F)(F)F)nc3)C3CCNCC3)c2)cn2nc(N)nc12` (single isomer, unassigned) [Example I-82] was tested. Which IC50 [1] did it give?
Answer: 0.9 nM

Question: And the IC50 [2]?
Answer: 0.5 nM
